Experimental data published in PubChem BioAssay (NCI).
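Five compound concentrations were applied to cells in 96-well plates for 48 hours; endpoints were derived by simple linear interpolation of the resulting dose-response curve. GI50 is the concentration that inhibits growth by half. The concentration for full growth arrest is given as TGI.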

Experiments:
Test in all cases: growth of human tumour cells (NCI), 48 h
[1] = test system: OVCAR-8 ovarian
[2] = test system: LOX IMVI melanoma
[3] = test system: SNB-75 CNS
[4] = test system: MDA-MB-468 breast
[5] = test system: RXF 393 renal
[6] = test system: CCRF-CEM leukemia
[7] = test system: NCI-H23 lung
[8] = test system: SR leukemia
[9] = test system: EKVX NSCLC
[10] = test system: HCT-15 colon
[11] = test system: DU-145 prostate
[12] = test system: UACC-62 melanoma
[13] = test system: MCF7 breast
[14] = test system: NCI-H226 lung
[15] = test system: NCI-H460 lung
[16] = test system: MOLT-4 leukemia
[17] = test system: IGROV1 ovarian
[18] = test system: U251 CNS
[19] = test system: K-562 leukemia
[20] = test system: SF-268 CNS
[21] = test system: SF-539 CNS
[22] = test system: MALME-3M melanoma
[23] = test system: RPMI-8226 leukemia
[24] = test system: SK-MEL-2 melanoma
[25] = test system: SNB-19 CNS
[26] = test system: KM12 colon
[27] = test system: TK-10 renal
[28] = test system: SN12C renal
[29] = test system: HCT-116 colon
[30] = test system: 786-0 renal
[31] = test system: MDA-MB-231 breast
[32] = test system: OVCAR-4 ovarian
[33] = test system: COLO 205 colon
[34] = test system: HOP-62 NSCLC
[35] = test system: T-47D breast
[36] = test system: M14 melanoma
[37] = test system: ACHN renal
[38] = test system: MDA-MB-435
[39] = test system: SK-OV-3 ovarian
[40] = test system: HT29 colon
[41] = test system: HS 578T breast
[42] = test system: HL-60(TB) leukemia
[43] = test system: UACC-257 melanoma
[44] = test system: BT-549 breast
[45] = test system: NCI-H522 lung
[46] = test system: NCI/ADR-RES ovarian
[47] = test system: SW-620 colon
[48] = test system: A498 renal
[49] = test system: SK-MEL-28 melanoma
[50] = test system: CAKI-1 renal
[51] = test system: HCC-2998 colon
[52] = test system: PC-3 prostate
[53] = test system: OVCAR-3 ovarian
[54] = test system: SK-MEL-5 melanoma
[55] = test system: OVCAR-5 ovarian
[56] = test system: UO-31 renal
[57] = test system: SF-295 CNS
[58] = test system: HOP-92 NSCLC
[59] = test system: A549 NSCLC

Compound: Cc1ccc(/C=C/C(=O)c2ccc(S(=O)(=O)NCCNc3nc(Nc4ccc(F)cc4)nc(N(C)C)n3)cc2)cc1
- GI50 [1]: 13 µM
- TGI [1]: 27 µM
- GI50 [2]: 4.12 µM
- TGI [2]: 15.3 µM
- GI50 [3]: 7.59 µM
- TGI [3]: 45 µM
- GI50 [4]: 4.66 µM
- TGI [4]: 17 µM
- GI50 [5]: 4.98 µM
- TGI [5]: 18.2 µM
- GI50 [6]: 5.28 µM
- TGI [6]: > 100 µM
- GI50 [7]: 11.3 µM
- TGI [7]: 23.8 µM
- GI50 [8]: 2.76 µM
- TGI [8]: 11.2 µM
- GI50 [9]: 4.96 µM
- TGI [9]: 16.9 µM
- GI50 [10]: 3.92 µM
- TGI [10]: 10.9 µM
- GI50 [11]: 14 µM
- TGI [11]: 32.4 µM
- GI50 [12]: 8.4 µM
- TGI [12]: 21.1 µM
- GI50 [13]: 2.01 µM
- TGI [13]: 5.8 µM
- GI50 [14]: 10.4 µM
- TGI [14]: 25.8 µM
- GI50 [15]: 4.22 µM
- TGI [15]: 15.8 µM
- GI50 [16]: 3.86 µM
- TGI [16]: 48.6 µM
- GI50 [17]: 15.1 µM
- TGI [17]: 31 µM
- GI50 [18]: 11.6 µM
- TGI [18]: 26 µM
- GI50 [19]: 3.89 µM
- TGI [19]: 25.3 µM
- GI50 [20]: 8.76 µM
- TGI [20]: 29.2 µM
- GI50 [21]: 13 µM
- TGI [21]: 25.9 µM
- GI50 [22]: 16.4 µM
- TGI [22]: 31.6 µM
- GI50 [23]: 2.73 µM
- TGI [23]: 8.28 µM
- GI50 [24]: 11.2 µM
- TGI [24]: 24.2 µM
- GI50 [25]: 11 µM
- TGI [25]: 23.6 µM
- GI50 [26]: 5.41 µM
- TGI [26]: 24.5 µM
- GI50 [27]: 15.2 µM
- TGI [27]: 30.7 µM
- GI50 [28]: 11.2 µM
- TGI [28]: 23.4 µM
- GI50 [29]: 1.75 µM
- TGI [29]: 3.28 µM
- GI50 [30]: 10.5 µM
- TGI [30]: 23.1 µM
- GI50 [31]: 6.56 µM
- TGI [31]: 20 µM
- GI50 [32]: 7.79 µM
- TGI [32]: 33.8 µM
- GI50 [33]: 6.51 µM
- TGI [33]: 20.9 µM
- GI50 [34]: 15.3 µM
- TGI [34]: 31.4 µM
- GI50 [35]: 3.86 µM
- TGI [35]: 17.8 µM
- GI50 [36]: 5.91 µM
- TGI [36]: 19.7 µM
- GI50 [37]: 6.31 µM
- TGI [37]: 18.9 µM
- GI50 [38]: 6.03 µM
- TGI [38]: 21.6 µM
- GI50 [39]: 17 µM
- TGI [39]: 45.9 µM
- GI50 [40]: 2.38 µM
- TGI [40]: 5.25 µM
- GI50 [41]: 10.7 µM
- TGI [41]: 47.4 µM
- GI50 [42]: 5.58 µM
- TGI [42]: 32.1 µM
- GI50 [43]: 17.4 µM
- TGI [43]: 33.1 µM
- GI50 [44]: 15.7 µM
- TGI [44]: 30.1 µM
- GI50 [45]: 5.24 µM
- TGI [45]: 18.1 µM
- GI50 [46]: 8.39 µM
- TGI [46]: 21.1 µM
- GI50 [47]: 7.53 µM
- TGI [47]: 20.9 µM
- GI50 [48]: 12.6 µM
- TGI [48]: 25.5 µM
- GI50 [49]: 11.3 µM
- TGI [49]: 23.7 µM
- GI50 [50]: 6.98 µM
- TGI [50]: 22.6 µM
- GI50 [51]: 4.5 µM
- TGI [51]: 15.8 µM
- GI50 [52]: 3.54 µM
- TGI [52]: 18.2 µM
- GI50 [53]: 11.3 µM
- TGI [53]: 24.8 µM
- GI50 [54]: 8.25 µM
- TGI [54]: 20.7 µM
- GI50 [55]: 14.9 µM
- TGI [55]: 28.2 µM
- GI50 [56]: 6.77 µM
- TGI [56]: 19.8 µM
- GI50 [57]: 11.5 µM
- TGI [57]: 23.8 µM
- GI50 [58]: 7.63 µM
- TGI [58]: 22.2 µM
- GI50 [59]: 10.5 µM
- TGI [59]: 28.6 µM
